{"source": "patent US8895756B2", "about": "“Bendamustine pharmaceutical compositions” (priority 2005, dated 2014)", "test": "Fisher esterification conditions: formation of t-butyl ester of bendamustine in TBA", "type": "physicochemical", "conditions": "heated in 60° C. TBA with HCl for 20 hours", "description": "Experiments were performed using traditional Fisher esterification reaction conditions required for the formation of t-butyl ester of bendamustine. Bendamustine was heated in 60° C. TBA with HCl for 20 hours."}
{"compound": "Cl.Cn1c(CCCC(=O)O)nc2cc(N(CCCl)CCCl)ccc21", "note": "[bendamustine, 4-{5-[Bis(2-chloroethyl)amino]-1-methyl-2-benzimidazolyl}butyric acid]", "values": [{"measurement": "formation of t-butyl ester", "result": "No reaction was observed"}]}
